# Measurements: patent US5266571A, “Treatment of hemorrhoids with 5-HT2 antagonists” (priority 1992, dated 1993)
# Counter-ions that a name gives are not always drawn. Like-named read-outs stand apart in the source and are kept apart here.
# What was measured:
# 5-HT2 = 5-HT2 (Homo sapiens, UniProt P28223); assay: Receptor Blocking Profile: inhibition of labeled 5-HT binding, 5-HT2
# Procedure: (§1) The receptor blocking profile is determined as follows: Labeled 5-HT is mixed with a purified preparation containing the receptor. The amount of labeled material that attaches itself to the receptor and cannot be washed off is calculated. In a series of other similar tubes, the same quantity of labeled 5-HT is mixed with increasing concentrations of the antagonist which will antagonize the binding of 5-HT to the receptor. Decreasing quantities of the labeled material will bind to the receptor. The concentration of the antagonist that inhibits the binding by 50% is then calculated.
# 5-HT1 = assay: Receptor Blocking Profile, 5-HT1; format: binding; conditions: read-out: Receptor Blocking Profile IC-50, 5-HT1
# Procedure: (§2) The IC- 50 is the concentration that inhibits agonist binding to the
# (§3) receptor by 50%. The better the blocker a compound is, the smaller is the
# (§4) concentration thereof needed to block the receptor, i.e., the smaller the
# (§5) IC-50, the better receptor blocker or antagonist the compound is.
# as §1
# Dopamine-2 = Dopamine-2 (Homo sapiens, UniProt P14416); assay: Receptor Blocking Profile, Dopamine-2; format: binding
# Dopamine-2, sequence (P14416 whole entry): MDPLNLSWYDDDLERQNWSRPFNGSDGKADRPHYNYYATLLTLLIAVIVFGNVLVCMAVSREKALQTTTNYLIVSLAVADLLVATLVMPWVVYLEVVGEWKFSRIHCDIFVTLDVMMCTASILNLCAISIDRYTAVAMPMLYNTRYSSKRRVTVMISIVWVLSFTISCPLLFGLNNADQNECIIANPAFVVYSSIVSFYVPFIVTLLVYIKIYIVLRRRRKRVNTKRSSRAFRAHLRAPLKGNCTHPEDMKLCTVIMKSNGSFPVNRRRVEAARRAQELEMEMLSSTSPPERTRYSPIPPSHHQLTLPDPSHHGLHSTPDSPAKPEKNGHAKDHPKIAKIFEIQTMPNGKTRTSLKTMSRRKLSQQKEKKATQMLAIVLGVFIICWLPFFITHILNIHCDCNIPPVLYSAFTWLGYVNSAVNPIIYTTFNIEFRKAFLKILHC
# Alpha-receptor = assay: Receptor Blocking Profile, Alpha-receptor; format: binding; conditions: read-out: Receptor Blocking Profile IC-50, Alpha-receptor
# Procedure: as §2, §3, §4, §5, §1
# human colon veins = assay: Activity against 5-HT on the human colon in vitro (contraction of human colonic vein rings); conditions: for blocking contractile effects of 5-HT on human colon rings, correlation with receptor blocking potencies: human colon rings in vitro, compared with the receptors tested; for IC50: read-out: IC-50, activity against 5-HT on the human colon in vitro
# Procedure: Human colonic vein rings were isolated from discarded human colon tissue following surgery (colostomy). The rings were prepared immediately after surgery and were suspended in buffered physiological saline. The contractions produced by the rings in response to the addition of 5-HT in vitro were measured. The effects of three selected 5-HT2 antagonist compounds on antagonizing 5-HT contractile effects were also determined.
# This activity is determined as follows: Rings of human colon veins are prepared and hung in a tissue bath. The contractions of the rings are monitored. Adding 5-HT causes the rings to contract. Pre-addition of increasing concentrations of the antagonist result in lesser contractions. The amount of antagonist causing a 50% inhibition of the contractions is then calculated.
# 5-HT2 receptor [1] = conditions: background statement; cited from earlier work
# 5-HT2 receptor [2] = conditions: background statement; cited from earlier work; remark: listed apart in the source
# [3] = read-out: Receptor Blocking Profile IC-50, Dopamine-2
# [4] = human colon vein rings, antagonist pre-added, 5-HT-induced contraction
# 5-HT2, sequence (P28223 whole entry, species assumed): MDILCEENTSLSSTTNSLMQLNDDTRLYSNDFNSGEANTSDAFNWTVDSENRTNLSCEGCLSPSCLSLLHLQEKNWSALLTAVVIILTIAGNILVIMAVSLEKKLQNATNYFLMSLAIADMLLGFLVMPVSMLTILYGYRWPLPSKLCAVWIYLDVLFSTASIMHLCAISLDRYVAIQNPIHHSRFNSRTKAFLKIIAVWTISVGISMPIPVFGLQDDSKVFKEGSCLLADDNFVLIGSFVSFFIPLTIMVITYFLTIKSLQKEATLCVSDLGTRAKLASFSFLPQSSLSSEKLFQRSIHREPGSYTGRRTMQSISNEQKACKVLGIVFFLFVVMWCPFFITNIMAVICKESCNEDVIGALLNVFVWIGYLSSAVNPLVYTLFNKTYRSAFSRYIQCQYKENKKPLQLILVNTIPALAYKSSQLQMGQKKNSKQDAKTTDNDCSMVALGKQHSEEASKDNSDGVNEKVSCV
SMILES,IC50 (5-HT2) [nM],IC50 (5-HT1) [nM],IC50 (Dopamine-2; [3]) [nM],IC50 (Alpha-receptor) [nM],"blocking contractile effects of 5-HT on human colon rings, correlation with receptor blocking potencies (human colon veins)",IC50 (human colon veins; [4]) [nM],IC50 (Dopamine-2) [nM],"IC50 (5-HT2; read-out: Receptor Blocking Profile IC-50, 5-HT2, displacement of labeled 5-HT) [nM]",IC50 (human colon veins; Homo sapiens) [nM],antagonism of binding of 5-HT to 5-HT2 receptor (5-HT2 receptor [1]),inhibition of modulation of phosphatidylinositol turnover by 5-HT2 receptor (5-HT2 receptor [2])
"CN1CCCCC1CCc1ccccc1NC(=O)C=Cc1ccccc1.Cl (centres unmarked) [Compound I, 2'[2-(1-methyl-2-piperidyl)ethyl] cinnamanilide hydrochloride]",3.4,22000,> 1000,> 1000,correlated best with their 5-HT2 blocking potencies,2,,,,,
"CCc1nn(CCCN2CCN(c3cccc(Cl)c3)CC2)c(=O)n1CCOc1ccccc1 [Compound II, 2-[3-[4-(3-chlorophenyl)-1-piperazinyl]propyl-5-ethyl-2,4-dihydro-4-(2-phenoxyethyl)-3H-1,2,4-triazol-3-one hydrochloride]",,> 1000,,160,correlated best with their 5-HT2 blocking potencies,10,> 1000,,,,
"O=C1CC2(CCCC2)CC(=O)N1CCCCN1CCN(c2nsc3ccccc23)CC1 [Compound III, 8-[4-[4-(1,2-benzisotriazol-3-yl)-1-piperazinyl]butyl]-8-azaspiro[4,5]decane-7,9-dione hydrochloride]",,12.5,8.4,47,correlated best with their 5-HT2 blocking potencies,,,1.7,1,,
O=C(c1ccc(F)cc1)C1CCN(CCn2c(=O)[nH]c3ccccc3c2=O)CC1 [ketanserin],,,,,,,,,,antagonized,inhibited
CN1C[C@@H](NS(=O)(=O)N(C)C)C[C@@H]2c3cccc4c3c(cn4C)C[C@H]21 [mesulergine],,,,,,,,,,antagonized,
